The record followed here is paper PMC9697330, “Co-Delivery of 8-Hydroxyquinoline Glycoconjugates and Doxorubicin by Supramolecular Hydrogel Based on α-Cyclodextrin and pH-Responsive Micelles for Enhanced Tumor Treatment” (Pharmaceutics, 2022).

Where two headings read alike, the source gives them in different places.

Data set [1] concerns MCF-7 (human breast adenocarcinoma cell line). Briefly: MTT assay, cytotoxicity against MCF-7 cells. The class given is cell-based. The source says: (§1) The human breast adenocarcinoma cell line (MCF-7) was received from collections at the Maria Skłodowska-Curie Memorial Cancer Center and Institute of Oncology (Gliwice, Poland). The Normal Human Dermal Fibroblasts—Neonatal (NHDF-Neo) were purchased from LONZA (Cat. No. CC-2509, Lonza, Poland). The culture media consisted of DMEM + F12 medium, with 5% antibiotics (penicillin and streptomycin) and 10% fetal bovine serum. The culture media was bought from HyClone. Fetal bovine serum (FBS) was purchased from Eurx, Poland. Antibiotic Antimycotic Solution (100×) was purchased from Sigma-Aldrich, Germany.
(§2) The cytotoxicity of blank and drug-loaded SMH were evaluated using the MTT assay (Merck, Darmstadt, Germany). Briefly, human breast adenocarcinoma (MCF-7) or Normal Human Dermal Fibroblasts-Neonatal (NHDF-Neo) cells were seeded into 96-well plates at a concentration of 5 × 10^3 per well. The cell cultures were incubated for 24 h at 37 °C in a humidified atmosphere of 5% CO2. Afterward, the culture medium was removed, replaced with tested formulations, in a medium with varying concentrations, and incubated further for 24, 48, or 72 h, respectively. After that, the medium was removed and the MTT solution was added (0.5 mg·mL^−1 in PBS). After three hours of incubation, the MTT solution was taken off and the precipitated formazan was dissolved in dimethylsulfoxide. The absorbance was measured at 570 nm using a plate reader (Epoch, BioTek, Winooski, VT, USA). The experiments were performed in at least three independent repetitions, with four technical repeats for each tested concentration. The IC50 values were calculated using CalcuSyn software (ver. 2.0, Biosoft, Cambridge, UK). The IC50 parameter was defined as the compound concentration that was necessary to reduce the proliferation of cells to 50% of the untreated control. The results are presented as average values with standard deviations. […] Values of CI < 1 represent synergism; CI = 1 represents an additive interaction (i.e., no interaction); and CI > 1 represents antagonism.
(Tetrazolium assays rely on reduction of a dye to a coloured formazan, in cell work by metabolically active cells.)

The test system of data set [2] is NHDF-Neo (Normal Human Dermal Fibroblasts-Neonatal). Briefly: MTT assay, cytotoxicity against NHDF-Neo cells. Type of data set: cell-based.
Description: as §1, §2

Data set [3] can be described thus: NMR titration for host-guest inclusion complex of 8HQ-Glu with α-CD. Type of data set: physicochemical. The note with it: D2O, α-CD 10 mM, 8HQ-Glu 1 to 20 mM, 24 h at rt. As to the method: SMHs were prepared based on the host–guest interaction between the PEG chains of mPEG-b-PKPC or mPEG-b-PTMC micelles and α-CD. Typically, the lyophilized micelles were resuspended (15 mg·mL^−1) in PBS at pH 7.4, as a hydrogel precursor. Then, the same volume of 12% solution of α-CD in PBS was added to the micelle solution. The mixture was vortexed for 1 min followed by sonication for 1 min. The resultant mixture was allowed to stand still overnight for solidification. Firstly, gelation was visually observed by a simple vial inversion method. […] Thus, SMHs obtained (mPEG-b-PKPC^SMH or mPEG-b-PTMC^SMH) were used for characterization studies without any further modification. The transmittance of the α-CD and mPEG-b-PKPC^mic solution, measured at predetermined time intervals at 650 nm, immediately after mixing, was studied using a UV-Vis spectrophotometer JASCO V-570 (Tokyo, Japan). To confirm the formation of supramolecular hydrogels, the samples of mPEG5k, α-CD, mPEG-b-PKPC, or mPEG-b-PTMC, the lyophilized mPEG-b-PKPC^mic, or mPEG-b-PTMC^mic, the physical mixture of α-CD with the respective micelles, and freeze-dried SMHs were studied using the X-ray diffraction method (XRD). […] The samples were incubated for 24 h at rt with gentle shaking and the NMR spectra were measured.

`OC1O[C@H](Cn2cc(COc3cccc4cccnc34)nn2)[C@@H](O)[C@H](O)[C@H]1O` (stereo partly drawn) [8HQ-Glu, 6-(4-(8-quinolinyloxymethyl)-1H-1,2,3-triazol-1-yl)-6-deoxy-D-glucopyranose]: the IC50 was 168 µM in data set [1] (Homo sapiens, MCF7, MCF-7, 24 h incubation, read-out: Activity IC50, as 8HQ-Glu concentration); 128 µM in data set [1] (Homo sapiens, MCF7, MCF-7, 48 h incubation, read-out: Activity IC50, as 8HQ-Glu concentration); 55.3 µM in data set [1] (Homo sapiens, MCF7, MCF-7, 72 h incubation, read-out: Activity IC50, as 8HQ-Glu concentration); > 200 µM in data set [2] (Homo sapiens, 24 h incubation, read-out: Activity IC50, as 8HQ-Glu concentration); > 200 µM in data set [2] (Homo sapiens, 48 h incubation, read-out: Activity IC50, as 8HQ-Glu concentration); > 200 µM in data set [2] (Homo sapiens, 72 h incubation, read-out: Activity IC50, as 8HQ-Glu concentration). Further, the “Host-guest inclusion complex formation with α-CD (in words)” value in data set [3] is listed as “no inclusion complex formation”.
Take `COc1cccc2c1C(=O)c1c(O)c3c(c(O)c1C2=O)C[C@@](O)(C(=O)CO)C[C@@H]3O[C@H]1C[C@H](N)[C@H](O)[C@H](C)O1` [DOX, doxorubicin]: the IC50 is 8.73 µM in data set [1] (MCF-7, 24 h incubation, read-out: Activity IC50, as DOX concentration); 0.81 µM in data set [1] (MCF-7, 48 h incubation, read-out: Activity IC50, as DOX concentration); 0.15 µM in data set [1] (MCF-7, 72 h incubation, read-out: Activity IC50, as DOX concentration); > 20 µM in data set [2] (24 h incubation, read-out: Activity IC50, as DOX concentration); 9.8 µM in data set [2] (48 h incubation, read-out: Activity IC50, as DOX concentration); 0.39 µM in data set [2] (72 h incubation, read-out: Activity IC50, as DOX concentration).
